# Measured values from US9256062B2, “Electrowetting display apparatus and dye composition for electrowetting display” (FUJIFILM CORPORATION, priority 2012, dated 2016).
# What was measured:
# Type in all cases: physicochemical
# [1] = Color tone of colored solution, visually observed; conditions: 0.001%-by-mass n-decane solution
# Source text: (§1) Azamethine colorants (the above-mentioned Exemplary Compounds 16, 17, 1, and 3 shown in Table 1 below) and n-decane that was an organic solvent were mixed, respectively, thereby preparing 4 kinds of 0.001%-by-mass n-decane solutions (colored compositions) colored with the azamethine colorants, respectively.
# (§2) Separately, azo colorants (Comparative Compounds 1 to 3 mentioned below) and n-decane that was an organic solvent were mixed, respectively, thereby preparing 3 kinds of 0.001%-by-mass n-decane solutions (comparative colored compositions) colored with the azo colorants, respectively, as comparative colored compositions.
# Each of the colored solutions (colored compositions) was visually observed and evaluated regarding the color tone thereof.
# [2] = Maximum absorption wavelength, absorbance and absorption coefficient (visible light spectrophotometer); conditions: for Absorbance (abs) / Maximum absorption wavelength (λmax): 0.001%-by-mass n-decane solution; for Molar absorption coefficient (ε): at maximum absorption wavelength, calculated by Lambert-Beer law, n-decane solution; for molar extinction coefficients (ε) (in words): summary of Table 1
# Source text: as §1, §2
# The maximum absorption wavelength (λmax) and the absorbance of the colored solutions (colored compositions) were measured using a visible light spectrophotometer (UV-1800 PC, trade name, manufactured by Shimadzu Corporation). Further, the molar extinction coefficient (∈) at a maximum absorption wavelength (λmax) of the colorants included in the colored solutions (the colored compositions) was calculated, based on a Lambert-Beer law.
# Solubility in hexane = conditions: for Solubility in hexane [%]: n-hexane, 25° C. and 0.1 MPa, % by mass; for solubility in hexane (in words): summary of Table 1
# Procedure: The solubility of each of the colorants in n-hexane as a non-polar solvent was measured as described below.
# The respective colorants were each dissolved in n-hexane that had been heated to 50° C. to prepare a saturated solution, and then, the obtained saturated solution was left to stand for 1 hour under an environment of 25° C. and 0.1 MPa. The precipitated colorant was filtered, and the precipitation amount was measured to calculate the solubility (% by mass) of each of the colorants in n-hexane at 25° C. and 0.1 MPa.
# [3] = Relative dielectric constant of colorant; conditions: for Relative dielectric constant (1 kHz): extrapolated to colorant concentration 100% from diluted n-decane solutions, 1.0 V, 20° C., 40% RH; for relative dielectric constants (in words): summary of Table 1
# Procedure: Herein, the relative dielectric constant of the colorant denotes a relative dielectric constant (calculated value) at a colorant concentration of 100%, as determined by extrapolating a straight line (calibration curve) indicating the relationship between the colorant concentration and the relative dielectric constant in a diluted colorant solution.
# An equivalent parallel capacitance when a measurement frequency 1 kHz and a measurement voltage of 1.0 V are applied is measured in the state in which a diluted colorant solution is sandwiched between two electrodes facing each other with an electrode interval of 10 μm, and the relative dielectric constant of the diluted colorant solution is calculated by the following equation, based on the equivalent parallel capacitance thus obtained. Relative dielectric constant of diluted colorant solution=Equivalent parallel capacitance×Electrode interval/Electrode area/Dielectric constant of vacuum (∈0)
# The relative dielectric constant of each of the colorants is determined by the following method.
# That is, the relative dielectric constants of plural diluted colorant solutions at various concentrations, which had been prepared as described in (4-1) below, were measured, respectively, in the manner as described in (4-2) below. From the results obtained, a straight line (calibration curve) showing the relationship between the colorant concentrations and the relative dielectric constants were created. The relative dielectric constant (calculated value) at a colorant concentration of 100% was determined by extrapolating the straight line (calibration curve), and the obtained value was taken as the relative dielectric constant of the colorant.
# The respective colorants and n-decane as an organic solvent are mixed, to thereby prepare n-decane solutions (diluted colorant solutions) at various concentrations, respectively.
# A diluted colorant solution was sandwiched between ITO electrode-containing glass substrates that are flat plates in parallel facing each other at an electrode interval of 10 μm, and then an equivalent parallel capacitance was measured at the time of voltage application for measurement of 1.0 V at a frequency for measurement of 1 kHz under the conditions of 20° C. and 40% RH using a Model 2353LCR meter (trade name, manufactured by NF Corporation). Based on the equivalent parallel capacitance, the relative dielectric constant of the diluted colorant solution was determined in accordance with the following equation.
# Relative dielectric constant of diluted colorant solution=Equivalent parallel capacitance×Interval of electrodes/Area of electrode/Dielectric constant of vacuum (∈0)
SMILES,Color of solution [1],Absorbance (abs) [2],Maximum absorption wavelength (λmax) [2],Molar absorption coefficient (ε) [2],molar extinction coefficients (ε) (in words) [2],Solubility in hexane [%] (Solubility in hexane),solubility in hexane (in words) (Solubility in hexane),Relative dielectric constant (1 kHz) [3],relative dielectric constants (in words) [3]
CCCCC(CC)c1nnc2n1N=C(C(C)(C)C)/C2=N/c1c(C(C)(C)C)nn2c(C(CC)CCCC)n[nH]c12 (stereo not drawn) [Exemplary Compound 1],Orange,0.533 abs,492 nm,28600 L/mol/cm,high,10%,high solubility,3.3,low
CCCCC(CC)c1n[nH]c2c(/N=C3/C(C#N)=C(C(=O)OC4C(C(C)(C)C)CC(C)CC4C(C)(C)C)c4nc(C(C)(C)C)nn43)c(C(C)(C)C)nn12 (stereo not drawn) [Exemplary Compound 3],Red,0.797 abs,545 nm,56900 L/mol/cm,high,≥ 40 or %,high solubility,5.1,low
